{
  "source": "paper PMC5650337",
  "about": "“A peptidomimetic with a chiral switch is an inhibitor of epidermal growth factor receptor heterodimerization” (Oncotarget, 2017)",
  "key": {"[1]": {"target": "T1, HER2:HER3 heterodimerization in tumor sections (Homo sapiens, UniProt P04626)", "T1 construct": "from tissue; host or cells: BT-474 xenograft tumours grown in athymic nude mice", "T1 sequence (P04626 23-1255, one chain of several)": "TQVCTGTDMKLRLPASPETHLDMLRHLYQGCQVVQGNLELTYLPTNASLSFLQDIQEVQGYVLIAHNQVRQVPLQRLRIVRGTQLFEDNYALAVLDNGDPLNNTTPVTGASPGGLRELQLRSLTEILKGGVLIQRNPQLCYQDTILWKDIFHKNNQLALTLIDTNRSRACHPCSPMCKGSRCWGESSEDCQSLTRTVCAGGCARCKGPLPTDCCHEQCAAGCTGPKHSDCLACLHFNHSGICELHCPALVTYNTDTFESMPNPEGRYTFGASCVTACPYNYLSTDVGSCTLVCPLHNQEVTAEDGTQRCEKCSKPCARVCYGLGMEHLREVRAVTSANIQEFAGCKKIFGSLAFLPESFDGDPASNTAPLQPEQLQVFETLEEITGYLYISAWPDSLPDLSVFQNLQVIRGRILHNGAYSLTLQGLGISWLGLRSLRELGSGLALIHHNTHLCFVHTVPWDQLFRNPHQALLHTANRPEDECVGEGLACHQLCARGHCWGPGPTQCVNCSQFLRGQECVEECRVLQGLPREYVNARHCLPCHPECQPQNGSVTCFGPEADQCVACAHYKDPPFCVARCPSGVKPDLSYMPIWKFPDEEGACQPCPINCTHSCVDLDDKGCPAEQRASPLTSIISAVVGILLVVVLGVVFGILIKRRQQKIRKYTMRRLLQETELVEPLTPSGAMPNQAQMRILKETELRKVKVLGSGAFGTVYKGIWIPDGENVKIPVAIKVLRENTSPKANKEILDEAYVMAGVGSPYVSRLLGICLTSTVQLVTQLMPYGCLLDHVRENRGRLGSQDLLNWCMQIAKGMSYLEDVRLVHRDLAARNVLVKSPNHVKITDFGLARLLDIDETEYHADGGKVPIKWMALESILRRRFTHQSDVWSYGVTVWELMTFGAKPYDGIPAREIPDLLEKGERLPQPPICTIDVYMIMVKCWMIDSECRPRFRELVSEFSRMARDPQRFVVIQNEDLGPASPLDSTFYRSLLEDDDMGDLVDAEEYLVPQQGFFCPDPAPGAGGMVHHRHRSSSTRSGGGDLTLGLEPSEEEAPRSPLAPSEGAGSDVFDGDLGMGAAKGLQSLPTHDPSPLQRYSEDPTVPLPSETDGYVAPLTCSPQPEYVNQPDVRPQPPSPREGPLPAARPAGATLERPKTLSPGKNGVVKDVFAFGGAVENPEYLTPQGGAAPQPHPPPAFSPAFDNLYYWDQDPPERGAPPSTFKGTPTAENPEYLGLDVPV", "assay": "PLA on xenograft tumor sections", "format": "in vivo, athymic nude mice", "description": "Western blot and PLA assay were carried out on tumor sections as described before. Immunoblot analysis was performed to evaluate the levels of total HER2 and phosphorylated HER2. Tumor sections were deparaffinized using xylene and rehydrated with decreasing concentrations of ethanol. Antigen retrieval on the microsections of the breast tumors was done in a steaming sodium citrate buffer (10 mM, 0.05% Tween-20, pH 6.0) for 5 min. The tumor sections were then used to analyze inhibition of HER2:HER3 dimerization using PLA."}, "BT-474 breast tumors": {"test_system": "BT-474 breast tumors", "assay": "Xenograft model of breast cancer", "format": "in vivo, athymic nude mice", "details": "BT-474 xenograft, 19 days; 18 and 9 4 mg/kg twice a week intratumor; lapatinib 10 mg/kg once a week i.p.", "description": "All animals were handled according to the approved protocol from IACUC at the University of Louisiana at Monroe. Athymic nude mice (Foxn1nu/Foxn1+, female, 4–5 weeks) were purchased from Harlan Laboratories (Indianapolis, IN) and maintained in the ULM School of Pharmacy vivarium. After acclimatization of animals to the local environment, estrogen (17β-estradiol) pellets (0.72 mg, 90-day release) were implanted subcutaneously in the mice, under anesthesia. Tumors were induced in mice as described previously. Orthotopic injection of about three-million BT-474 cells suspended in the serum-free RPMI-1640 medium was done at the second left mammary fat pad. Mice were observed every day for tumor formation, and the tumor diameter was measured with calipers, and the tumor volume was calculated. When a tumor diameter of 3 mm was achieved, mice were randomly assigned to four groups of six. These groups contain negative control (vehicle control), positive control (lapatinib), and two treatment groups (compound 9 and 18). The mice were treated for 19 days. Compound 18 was administered near the base of the tumor at a dose of 4 mg/kg twice a week. Control groups received intratumor saline injections twice a week, and lapatinib was administered at 10 mg/kg once a week by intraperitoneal injection. The marker to end the experiments was based on tumor doubling time rather than tumor volume. Since tumor doubling time was 4 times in 19 days, experiments were stopped on the 19th day. Tumor-bearing mice were sacrificed, and three tumors per group were harvested and maintained at –80°C and the remaining three tumors were fixed in paraffin blocks. Microsections (5 µm) of paraffin fixed tumors were stained with hemotoxylin and eosin (H&E) and observed for necrosis by a pathologist. All data are presented as the mean ± SE. Statistical differences were evaluated by Mann-Whitney U test as well as one-way ANOVA analysis of data from different groups, and the criterion for statistical significance was p < 0.05."}, "SKBR-3 cells": {"test_system": "SKBR-3 cells", "assay": "TUNEL assay", "format": "cell-based", "details": "5 and 10 µM", "description": "Ten thousand SKBR-3 cells were added to each well of Lab-Tek® 8-chamber slides and incubated overnight for cell attachment. […] Cells were washed twice with cold PBS. Cell fixation was achieved using 10% buffered formalin followed by permeabilization of membranes using 0.2% Triton X-100 in PBS at room temperature. 100 µL of rTdT reaction mix containing biotinylated nucleotide mix was added. The slide was placed in a humidity chamber and incubated for 60 min at 37°C. With the addition of dilute saline-sodium citrate (SSC) solution (20X provided with the kit diluted to 2X), the reaction was stopped. Three PBS washes were made to ensure the removal of remaining unincorporated biotinylated nucleotides on the slide. Treatment with 0.3% hydrogen peroxide was done to block the endogenous peroxidases in the cells. The slide was incubated for 30 min at room temperature with dilute streptavidin HRP solution (1:500 in PBS). Diaminobenzidine (DAB) was added to stain the slide. After drying, DAPI was used to counterstain the nuclei, and images were obtained using a Nikon Eclipse TS100. The number of cells that had undergone apoptosis was counted and quantified."}, "[2]": {"target": "T2, EGFR:HER2 heterodimer in SKBR-3 cells (Homo sapiens, UniProt P04626)", "T2 construct": "we probed for HER2:EGFR dimers with PLA probes in SKBR-3 cells; host or cells: SKBR-3", "T2 sequence (P04626 23-1255, one chain of several)": "as above", "assay": "Proximity ligation assay (PLA)", "format": "cell-based", "details": "0.5 and 1 µM", "description": "(§1) Proximity ligation assay was performed as described previously. […] Fixed cells were used for PLA assay. Cells were incubated with primary antibodies for 24 h and washed, and secondary antibodies PLA+ and PLA− were added. After incubation and washing, PLA detection reagent was added, and the cells were covered with a glass plate after mounting medium was added. Slides were viewed using an inverted microscope and a multiphoton microscope. Images were obtained at 40 and 60X."}, "[3]": {"target": "T3, HER2:HER3 heterodimer in SKBR-3 cells (Homo sapiens, UniProt P04626)", "T3 construct": "indicating HER2:HER3 dimerization in SKBR-3 cells; host or cells: SKBR-3", "T3 sequence (P04626 23-1255, one chain of several)": "as above", "assay": "Proximity ligation assay (PLA)", "format": "cell-based", "details": "0.5 and 1 µM", "description": "as §1"}, "[4]": {"test_system": "MCF-10A normal breast epithelial cell line", "assay": "Antiproliferative activity (CellTiter-Glo)", "format": "cell-based", "description": "(§2) Erlotinib was from Sigma (Sigma-Aldrich Chemie GmbH)."}, "MCF-7 cells": {"test_system": "MCF-7 cells", "assay": "Antiproliferative activity (CellTiter-Glo)", "format": "cell-based", "description": "as §2"}},
  "note": "Where a SMILES comes first, the peptide text is derived from it.",
  "data": [
    {"smiles": "N=C(N)NCCC[C@@H]1NC(=O)[C@H]2CCCN2C(=O)[C@@H]2CCCN2C(=O)[C@H](CCCNC(=N)N)NC(=O)C[C@H](c2cccc3ccccc23)NC(=O)[C@H](Cc2ccccc2)NC(=O)[C@H](CC(=O)O)NC(=O)[C@H](CC(=O)O)NC(=O)[C@H](Cc2ccccc2)NC(=O)C[C@H](c2cccc3ccccc23)NC1=O", "note": "[compound 18, Cyclo(1,10)P^1p^2R^3(R-Anapa)^4F^5D^6D^7F^8(R-Anapa)^9R^10] (HELM PEPTIDE1{P.[dP].R.[O=C(C[C@@H](N[*:1])c1cccc2ccccc12)[*:2]].F.D.D.F.[O=C(C[C@@H](N[*:1])c1cccc2ccccc12)[*:2]].R}$PEPTIDE1,PEPTIDE1,1:R1-10:R2$$$V2.0)", "values": [
      {"measurement": "HER2:HER3 heterodimerization in tumor sections (PLA)", "setting": "[1]", "result": "diminished red fluorescence signals"},
      {"measurement": "Tumor growth versus vehicle", "setting": "BT-474 breast tumors", "result": "delay in tumor growth and tumor size"},
      {"measurement": "Apoptosis (TUNEL staining)", "setting": "SKBR-3 cells", "result": "positive staining for apoptosis"},
      {"measurement": "Inhibition of EGFR:HER2 heterodimerization (PLA)", "setting": "[2]", "result": "inhibits both EGFR:HER2 and HER2:HER3 dimerization"},
      {"measurement": "Inhibition of HER2:HER3 heterodimerization (PLA)", "setting": "[3]", "result": "inhibits heterodimerization in a concentration-dependent manner"},
      {"measurement": "Activity in MCF-10A relative to Calu-3 (times less)", "setting": "[4]; IC50 MCF-10A vs Calu-3", "result": "~2000", "unit": "times"},
      {"measurement": "Activity in MCF-10A relative to SKBR-3 (times less)", "setting": "[4]; IC50 MCF-10A vs SKBR-3", "result": "~200", "unit": "times"},
      {"measurement": "Synergistic effect with erlotinib (isobologram)", "setting": "MCF-7 cells; MCF-7, compound 18 plus erlotinib", "result": "no synergistic effect"},
      {"measurement": "IC50", "setting": "MCF-7 cells; breast cancer cells that do not overexpress HER2, 72 h", "result": "> 50", "unit": "µM"}
    ]}
  ]
}
